Assay results published in US8685992B2, “Histone deacetylase inhibitors based simultaneously on trisubstituted 1H-pyrroles and aromatic and heteroaromatic spacers” (Universidad del País Vasco, priority 2009, dated 2014).

Assays:
BT474 = assay: Cancer cell growth inhibition, BT474; format: cell-based; details: Homo sapiens, BT-474; BT474, Breast Cancer, 72 h treatment
Experimental: (§1) Cell culture-based assays were used to evaluate the ability of compounds of the invention to inhibit cancer cell growth inhibition.
(§2) Cells were obtained from the American Type Culture Collection (ATCC). Cells were cultured at 37° C. with 5% CO2 in the appropriate growth medium (see table below), and harvested respectively during the logarithmic growth period and counted with hemocytometer. The cell viability was over 98% by trypan blue exclusion. Cell concentrations were adjusted between 5×10^4 and 2×10^5 cells/ml with respective medium.
(§3) Stock solutions of test compounds and positive drugs Doxorubicin (Zhejiang, Haizheng, China), Paclitaxel (Beijing, Xiehe, China), Vincristin (Shenzhen Wanle, China), 5-FU (Tianjin jinyaoanjisuan, China), Irinotecan (Jiangsu Hengrui, China) and Cisplatin Nanjing zhiyao, China) were prepared in dimethyl sulphoxide (DMSO) or PBS at 20 mM.
(§4) All treatments were performed in triplicate. 10 μl drug solution was added to each well and incubated for 72 hours. At the end of the incubation, 20 μl of the freshly prepared MTS/PMS mixture solution was added to each well and incubated for 4 hours at 37° C. in a humidified, 5% CO2 atmosphere. Absorbance was read at 490 nm using SpectraMAX Plus microplate spectrophotometer. […] In order to calculate IC50, a dose-responsive curve was fitted using nonlinear regression model with a sigmoidal dose response.

MCF-7-FL = assay: Cancer cell growth inhibition, MCF-7-FL; format: cell-based; details: Homo sapiens, Breast Cancer, 72 h treatment
Experimental: as §1, §2, §3, §4

HT-1080 = assay: Cancer cell growth inhibition, HT-1080; format: cell-based; details: Homo sapiens; HT-1080, Fibrosarcoma, 72 h treatment
Experimental: as §1, §2, §3, §4

SK-HEP-1 = assay: Cancer cell growth inhibition, SK-HEP-1; format: cell-based; details: Homo sapiens, SK-HEP1; SK-HEP-1, Liver Cancer, 72 h treatment
Experimental: as §1, §2, §3, §4

143b = assay: Cancer cell growth inhibition, 143b; format: cell-based; details: Homo sapiens, Osteosarcoma, 72 h treatment
Experimental: as §1, §2, §3, §4

Human HDAC1 = Human HDAC1 (Homo sapiens (Human), UniProt Q13547); assay: HDAC1 fluorogenic peptide deacetylation assay; format: biochemical; details: human HDAC1, 50 μM substrate, 30° C., 2 h; read-out: IC50 (nM) of enzyme activity HDAC1
Human HDAC2 = Human HDAC2 (Homo sapiens (Human), UniProt Q92769); assay: HDAC2 fluorogenic peptide deacetylation assay; format: biochemical; details: human HDAC2, 50 μM substrate, 30° C., 2 h; read-out: IC50 (nM) of enzyme activity HDAC2
Human HDAC3/NcoR2 = Human HDAC3/NcoR2 (Homo sapiens (Human), UniProt O15379); assay: HDAC3 fluorogenic peptide deacetylation assay; format: biochemical; details: human HDAC3/NcoR2, 50 μM substrate, 30° C., 2 h; read-out: IC50 (nM) of enzyme activity HDAC3
Human HDAC6 = Human HDAC6 (Homo sapiens (Human), UniProt Q9UBN7); assay: HDAC6 fluorogenic peptide deacetylation assay; format: biochemical; details: human HDAC6, 50 μM substrate, 30° C., 2 h; read-out: IC50 (nM) of enzyme activity HDAC6
Human HDAC8 = Human HDAC8 (Homo sapiens (Human), UniProt Q9BY41); assay: HDAC8 fluorogenic peptide deacetylation assay; format: biochemical; details: human HDAC8, 50 μM substrate, 30° C., 2 h; read-out: IC50 (nM) of enzyme activity HDAC8
[1] = test system: Nuclear Extract from HeLa Cells; assay: HeLa Nuclear Extract HDAC assay; format: biochemical, human; details: 50 μM substrate, 30° C., 2 h, read-out: IC50 (nM) of enzyme activity HeLa
[2] = molecular target: histone deacetylase from rat liver; assay: Rat liver HDAC assay; format: biochemical; details: Boc-Lys(Ac)-AMC substrate, 30° C., 2 h, read-out: IC50 (nM) of enzyme activity Rat liver
HCT-116 = assay: Cancer cell growth inhibition, HCT-116; format: cell-based, human; details: HCT-116, Colorectal Cancer, 72 h treatment
Experimental: as §1, §2, §3, §4

MIAPACA-2 = assay: Cancer cell growth inhibition, MIAPACA-2; format: cell-based, human; details: MIAPACA-2, Pancreatic Cancer, 72 h treatment
Experimental: as §1, §2, §3, §4

HepG2 = assay: Cancer cell growth inhibition, HepG2; format: cell-based, human; details: HepG2, Liver Cancer, 72 h treatment
Experimental: as §1, §2, §3, §4

Colo205 = assay: Cancer cell growth inhibition, Colo205; format: cell-based; details: Homo sapiens, COLO 205; Colo205, Colorectal Cancer, 72 h treatment
Experimental: as §1, §2, §3, §4

MCF-7-218 = assay: Cancer cell growth inhibition, MCF-7-218; format: cell-based; details: Homo sapiens; MCF-7-218, Breast Cancer, 72 h treatment
Experimental: as §1, §2, §3, §4

Human HDAC1, sequence (Q13547 whole entry): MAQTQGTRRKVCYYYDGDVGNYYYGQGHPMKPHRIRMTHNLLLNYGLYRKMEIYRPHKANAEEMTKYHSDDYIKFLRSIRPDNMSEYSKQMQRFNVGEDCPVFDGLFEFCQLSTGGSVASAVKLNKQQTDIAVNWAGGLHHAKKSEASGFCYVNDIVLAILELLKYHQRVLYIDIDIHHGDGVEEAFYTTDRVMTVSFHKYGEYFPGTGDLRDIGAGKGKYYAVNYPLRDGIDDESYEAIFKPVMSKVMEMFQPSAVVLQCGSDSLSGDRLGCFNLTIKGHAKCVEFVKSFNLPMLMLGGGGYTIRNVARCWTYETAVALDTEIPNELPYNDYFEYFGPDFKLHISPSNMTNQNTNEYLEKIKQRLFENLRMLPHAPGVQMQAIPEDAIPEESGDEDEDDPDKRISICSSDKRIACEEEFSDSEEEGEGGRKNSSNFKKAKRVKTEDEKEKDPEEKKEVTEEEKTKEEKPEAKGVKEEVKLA
Human HDAC2, sequence (Q92769 whole entry): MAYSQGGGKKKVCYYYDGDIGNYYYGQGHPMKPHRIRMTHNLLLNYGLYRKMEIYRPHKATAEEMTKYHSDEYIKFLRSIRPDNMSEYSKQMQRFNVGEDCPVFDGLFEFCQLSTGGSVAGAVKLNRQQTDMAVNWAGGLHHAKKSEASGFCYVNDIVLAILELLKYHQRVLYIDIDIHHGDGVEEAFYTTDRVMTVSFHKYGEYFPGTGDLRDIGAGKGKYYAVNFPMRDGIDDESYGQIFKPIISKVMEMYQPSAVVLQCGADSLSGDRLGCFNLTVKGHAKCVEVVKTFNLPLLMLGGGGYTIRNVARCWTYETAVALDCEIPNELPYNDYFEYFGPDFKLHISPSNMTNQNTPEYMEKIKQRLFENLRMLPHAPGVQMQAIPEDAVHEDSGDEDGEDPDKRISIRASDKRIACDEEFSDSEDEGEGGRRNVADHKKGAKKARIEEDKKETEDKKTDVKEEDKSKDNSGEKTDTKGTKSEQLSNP
Human HDAC6, sequence (Q9UBN7 whole entry): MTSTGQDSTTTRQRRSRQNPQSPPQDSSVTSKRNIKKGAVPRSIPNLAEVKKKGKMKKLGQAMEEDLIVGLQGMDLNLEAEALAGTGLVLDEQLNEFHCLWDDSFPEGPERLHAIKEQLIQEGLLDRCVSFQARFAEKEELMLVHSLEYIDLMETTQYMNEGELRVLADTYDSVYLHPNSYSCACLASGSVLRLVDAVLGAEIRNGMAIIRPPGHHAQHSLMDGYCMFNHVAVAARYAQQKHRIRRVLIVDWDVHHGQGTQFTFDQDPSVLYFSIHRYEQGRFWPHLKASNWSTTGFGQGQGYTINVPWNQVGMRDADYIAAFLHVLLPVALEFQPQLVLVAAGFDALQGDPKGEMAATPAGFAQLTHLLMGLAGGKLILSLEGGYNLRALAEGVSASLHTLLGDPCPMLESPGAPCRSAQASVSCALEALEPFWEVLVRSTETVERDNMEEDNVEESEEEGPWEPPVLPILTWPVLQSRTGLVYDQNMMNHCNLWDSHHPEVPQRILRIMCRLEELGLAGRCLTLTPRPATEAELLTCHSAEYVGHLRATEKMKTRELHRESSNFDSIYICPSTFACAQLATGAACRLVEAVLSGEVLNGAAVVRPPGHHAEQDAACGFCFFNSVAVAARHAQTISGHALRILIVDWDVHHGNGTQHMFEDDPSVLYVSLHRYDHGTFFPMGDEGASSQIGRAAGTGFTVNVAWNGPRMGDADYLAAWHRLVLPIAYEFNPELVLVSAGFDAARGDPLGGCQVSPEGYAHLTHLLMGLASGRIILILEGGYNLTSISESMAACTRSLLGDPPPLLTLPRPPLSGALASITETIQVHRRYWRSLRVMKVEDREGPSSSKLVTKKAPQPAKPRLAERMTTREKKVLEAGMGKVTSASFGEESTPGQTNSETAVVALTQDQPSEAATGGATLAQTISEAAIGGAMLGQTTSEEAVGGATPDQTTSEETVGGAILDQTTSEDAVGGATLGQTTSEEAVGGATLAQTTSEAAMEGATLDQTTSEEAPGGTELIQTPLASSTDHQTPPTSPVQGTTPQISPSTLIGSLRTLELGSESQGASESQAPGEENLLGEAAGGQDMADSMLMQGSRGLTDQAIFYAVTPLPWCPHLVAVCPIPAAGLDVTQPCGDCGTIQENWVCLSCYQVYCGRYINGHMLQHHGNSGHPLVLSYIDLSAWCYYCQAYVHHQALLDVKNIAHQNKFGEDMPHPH
Human HDAC8, sequence (Q9BY41 whole entry): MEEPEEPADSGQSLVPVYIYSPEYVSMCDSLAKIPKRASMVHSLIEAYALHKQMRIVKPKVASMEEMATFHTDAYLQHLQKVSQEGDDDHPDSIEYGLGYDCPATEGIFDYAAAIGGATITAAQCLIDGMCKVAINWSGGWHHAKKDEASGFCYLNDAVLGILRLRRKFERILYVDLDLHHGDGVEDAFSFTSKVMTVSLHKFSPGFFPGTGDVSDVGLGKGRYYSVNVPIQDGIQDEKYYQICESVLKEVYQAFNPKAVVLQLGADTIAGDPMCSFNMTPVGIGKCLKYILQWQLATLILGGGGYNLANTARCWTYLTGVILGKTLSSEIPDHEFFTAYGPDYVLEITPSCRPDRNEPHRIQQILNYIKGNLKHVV
Human HDAC3/NcoR2, sequence (O15379 whole entry): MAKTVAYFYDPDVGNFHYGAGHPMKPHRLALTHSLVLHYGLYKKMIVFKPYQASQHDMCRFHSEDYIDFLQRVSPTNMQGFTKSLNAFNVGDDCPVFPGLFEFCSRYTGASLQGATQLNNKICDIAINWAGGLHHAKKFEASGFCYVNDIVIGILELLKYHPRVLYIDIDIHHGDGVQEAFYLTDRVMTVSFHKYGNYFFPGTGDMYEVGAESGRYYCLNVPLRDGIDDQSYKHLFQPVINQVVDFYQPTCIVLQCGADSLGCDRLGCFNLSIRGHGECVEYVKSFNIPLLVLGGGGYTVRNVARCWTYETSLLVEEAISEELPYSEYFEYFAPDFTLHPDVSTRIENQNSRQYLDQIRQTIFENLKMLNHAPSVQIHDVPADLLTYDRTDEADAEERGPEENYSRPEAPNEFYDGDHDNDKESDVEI
Human HDAC3/NcoR2, sequence (Q9Y618 395-489 partner): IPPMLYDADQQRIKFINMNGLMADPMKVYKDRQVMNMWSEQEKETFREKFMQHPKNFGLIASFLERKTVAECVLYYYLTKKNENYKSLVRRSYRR

| Structure (SMILES) | IC50 (Human HDAC1) [nM] | IC50 (Human HDAC2) [nM] | IC50 (Human HDAC3/NcoR2) [nM] | IC50 (Human HDAC6) [nM] | IC50 (Human HDAC8) [nM] | IC50 [1] [nM] | IC50 [2] [nM] | melting point | also measured |
| --- | --- | --- | --- | --- | --- | --- | --- | --- | --- |
| COc1cccc2c1C(=O)c1c(O)c3c(c(O)c1C2=O)C[C@@](O)(C(=O)CO)C[C@@H]3O[C@H]1C[C@H](N)[C@H](O)[C@H](C)O1 [Doxorubicin, reference compound] | – | – | – | – | – | – | – | – | IC50 (BT474): 4500 nM; IC50 (MCF-7-FL): 2370 nM; IC50 (HT-1080): 25.6 nM; IC50 (SK-HEP-1): 164 nM; IC50 (143b): 86.1 nM |
| COc1ccc(-c2cc(-c3ccccc3)[nH]c2C(=O)NCc2ccc(C(=O)Nc3ccccc3S)cc2)cc1 [Example 22, 3-(4-methoxyphenyl)-5-phenyl-N-(4-{[(2-sulfanylphenyl)amino]carbonyl}benzyl)-1H-pyrrole-2-carboxamide] | > 5000 | > 5000 | > 5000 | > 5000 | > 5000 | > 5000 | > 10000 | 134 to 135 °C | – |
| O=c1[nH]cc(F)c(=O)[nH]1 [Example 5-FU, 5-FU, reference compound] | – | – | – | – | – | – | – | – | IC50 (HCT-116): 1710 nM; IC50 (MIAPACA-2): 7610 nM; IC50 (HepG2): 3280 nM |
| CCc1c2c(nc3ccc(OC(=O)N4CCC(N5CCCCC5)CC4)cc13)-c1cc3c(c(=O)n1C2)COC(=O)[C@]3(O)CC [Irinotecan, reference compound] | – | – | – | – | – | – | – | – | IC50 (Colo205): 16600 nM |
| O=C(NO)c1ccc(CNC(=O)c2[nH]c(-c3ccoc3)cc2-c2ccc(F)cc2)cc1 [Example 12, 3-(4-fluorophenyl)-5-(3-furyl)-N-{4-[(hydroxyamino)carbonyl]benzyl}-1H-pyrrole-2-carboxamide] | 384 | 1150 | 451 | 42.8 | 124 | 46.4 | 56 | 162 to 164 °C | – |
| O=C(NO)c1ccc(CNC(=O)c2[nH]c(-c3ccccc3)cc2-c2ccc(O)cc2)cc1 [Example 10, N-{4-[(hydroxyamino)carbonyl]benzyl}-3-(4-hydroxyphenyl)-5-phenyl-1H-pyrrole-2-carboxamide] | 473 | 1390 | 512 | 10.8 | 340 | 34 | 66 | 139 to 141 °C | – |
| CC(=O)O[C@H]1C(=O)[C@@]2(C)[C@H]([C@H](OC(=O)c3ccccc3)[C@]3(O)C[C@H](OC(=O)[C@H](O)[C@@H](NC(=O)c4ccccc4)c4ccccc4)C(C)=C1C3(C)C)[C@]1(OC(C)=O)CO[C@@H]1C[C@@H]2O [Paclitaxel, reference compound] | – | – | – | – | – | – | – | – | IC50 (MCF-7-218): 285 nM |
| COc1ccc(-c2cc(-c3ccccc3)[nH]c2C(=O)NCc2ccc(C(=O)Nc3ccccc3N)cc2)cc1 [Example 21, N-(4-{[(2-aminophenyl)amino]carbonyl}benzyl)-3-(4-methoxyphenyl)-5-phenyl-1H-pyrrole-2-carboxamide] | 390 | 1260 | 3900 | > 5000 | > 5000 | 7010 | > 10000 | 142 to 143 °C (dec.) | – |
| COc1ccc(-c2cc(-c3ccccc3)[nH]c2C(=O)NCc2ccc(C(=O)Nc3ncccn3)cc2)cc1 [Example 26, 3-(4-methoxyphenyl)-5-phenyl-N-{4-[(pyrimidin-2-ylamino)carbonyl]benzyl}-1H-pyrrole-2-carboxamide] | > 5000 | > 5000 | > 5000 | > 5000 | > 5000 | > 5000 | – | 190 to 191 °C | – |
